Data from US20230023092A1, “TREATMENT OF DEPRESSION AND OTHER VARIOUS DISORDERS WITH PSILOCYBIN” (COMPASS […], priority 2019, published 2023).

Tested on: healthy subjects
Test: Positive and Negative Affect Schedule (PANAS)
Assay type: in vivo, human
Conditions: for PANAS-Negative, change from baseline, Mean / PANAS-Positive, change from baseline, Mean: Post-Treatment Day 0, LS mean; for PANAS-Negative, change from baseline, Mean difference / PANAS-Positive, change from baseline, Mean difference: Post-Treatment Day 0
Source text: In some embodiments, the Positive and Negative Affect Schedule (PANAS) is used to evaluate the safety and/or efficacy of psilocybin. The PANAS measures the acute emotional drug effects and comprises 2 mood scales that measure positive and negative affect. Positive affect refers to the propensity to experience positive emotions and interact with others positively. Negative affect involves experiencing the world in a more negative way. Subjects respond to 10 questions associated with negative affect and 10 questions associated with positive affect. The questions are scaled using a 5-point scale that ranges from “slightly or not at all (1)” to “extremely (5)”. A total higher score on the positive affect questions indicates more of a positive effect while a lower score on the negative affect questions indicates less of a negative affect. In some embodiments, after treating according to the methods of the disclosure, a subject experiences a decrease in negative affect score of the PANAS, between about 5% and about 100%, for example about 5%, about 10%, about 15%, about 20%, about 25%, about 30%, about 35%, about 40%, about 45%, about 50%, about 55%, about 60%, about 65%, about 70%, about 75%, about 80%, about 85%, about 90%, about 95%, or about 100%, compared to prior to treatment. In some embodiments, after treating according to the methods of the disclosure, a subject experiences an increase in positive affect score of the PANAS, between about 5% and about 100%, for example about 5%, about 10%, about 15%, about 20%, about 25%, about 30%, about 35%, about 40%, about 45%, about 50%, about 55%, about 60%, about 65%, about 70%, about 75%, about 80%, about 85%, about 90%, about 95%, or about 100%, about 110%, about 120%, about 130%, about 140%, about 150%, about 160%, about 170%, about 180%, about 190%, about 200%, about 210%, about 220%, about 230%, about 240%, about 250%, about 260%, about 270%, about 280%, about 290%, or about 300%, or more, compared to prior to treatment.
The Positive and Negative Affects Schedule (PANAS) score was also evaluated to measure the effect of psilocybin.

**Q.** Which “PANAS negative affect, mean increase from baseline” value (25 mg, Day 0 after treatment) does the source give for CN(C)CCc1c[nH]c2cccc(OP(=O)(O)O)c12 [Psilocybin, psilocybin] here?
**A.** The value was 1.3.

**Q.** And the “PANAS-Negative, change from baseline, Mean” value (Psilocybin 10 mg)?
**A.** Its value is −0.6.

**Q.** What about the “PANAS-Positive, change from baseline, Mean” value (Psilocybin 10 mg) of the same compound?
**A.** The value was 0.7.

**Q.** What about the “PANAS-Negative, change from baseline, Mean difference” value (Psilocybin 10 mg-Placebo) of the same compound?
**A.** The value was −0.5.

**Q.** What about the “PANAS-Positive, change from baseline, Mean difference” value (Psilocybin 10 mg-Placebo) of the same compound?
**A.** The value was 5.7.

**Q.** And the “PANAS-Negative, change from baseline, Mean” value (Psilocybin 25 mg)?
**A.** Its value is 1.3.

**Q.** And the “PANAS-Positive, change from baseline, Mean” value (Psilocybin 25 mg)?
**A.** The value was −0.4.

**Q.** And the “PANAS-Negative, change from baseline, Mean difference” value (Psilocybin 25 mg-10 mg)?
**A.** Its value is 1.9.

**Q.** What about the “PANAS-Positive, change from baseline, Mean difference” value (Psilocybin 25 mg-10 mg) of the same compound?
**A.** Its value is −1.0.

**Q.** What about the “PANAS-Negative, change from baseline, Mean difference” value (Psilocybin 25 mg-Placebo) of the same compound?
**A.** Its value is 1.4.

**Q.** What about the “PANAS-Positive, change from baseline, Mean difference” value (Psilocybin 25 mg-Placebo) of the same compound?
**A.** Its value is 4.6.
